Assay results from patent US20080176857A1, “4-Piperazinnylthieno[2,3-d]Pyrimidine Compounds as Platelet Aggregation Inhibitors” (priority 2005, published 2008).
“And” between values parts separate entries of the source, which are not always exact repeats. Identical values can stand only once.

Molecular target: P2Y12 receptor (Homo sapiens, UniProt Q9H244)
Assay: [33P]-2MeS-ADP binding to recombinant human P2Y12 membranes (Assay 3)
Set-up: expressed in transfected cells; host or cells: HEK cells
Settings: for IC50 / Ki: HEK cell membranes expressing human P2Y12, competition with 33P 2MeS-ADP; for % Inhibition / inhibition at 10 µM / inhibition at 1 µM: at highest concentration tested
Description: 3. Human P2Y12 Recombinant Cell Membrane Binding Assay with ^33P 2MeS-ADP.
The ability of a test compound to bind to the P2Y12 receptor was evaluated in a recombinant cell membrane binding assay. In this competitive binding assay, the test compound competed against a radiolabelled agonist for binding to the P2Y12 receptor, expressed on the cell membrane. Inhibition of binding of the labeled material was measured and correlated to the amount and potency of the test compound. Data from this assay are presented in Table F. This binding assay is a modification of the procedure in Takasaki, J. et. al, Mol. Pharmacol., 2001, Vol. 60, pg. 432.
HEK cells were transfected with the pDONR201P2Y12 vector and cultured in MEM with GlutaMAX I, Earle's salts, 25 mM HEPES (Gibco # 42360-032) containing 10% dialyzed FBS (Gibco # 26400-044), 100 μM nonessential amino acids (Gibco # 11140-050), 1 mM sodium pyruvate (Gibco # 11360-070), 0.05% geneticin (Gibco #10131-027), 3 μg/mL blasticidin (Fluka brand from Sigma # 15205), and 0.5 μg/mL puromycin (Sigma # P-8833).
Confluent cells were washed once with cold DPBS (Gibco # 14190-136). Fresh DPBS was added and the cells were scraped and centrifuged at 500×g for 5 minutes at 4° C. The cell pellets were resuspended in TEE buffer (25 mM Tris, 5 mM EDTA, 5 mM EGTA) containing 1 protease inhibitor cocktail tablet (Roche # 1 873 580) per 50 mL (called TEE+Complete) and can be flash frozen at this point.
In one embodiment, frozen cell pellets were used to prepare the membranes. In that embodiment, the frozen cell pellets were thawed on ice. In another embodiment, cell pellets may be used without flash freezing before moving on to the next step.
Cell pellets were resuspended in TEE buffer+Complete and homogenized in a glass dounce for 12 strokes. The cell suspension was centrifuged at 500×g for 5 minutes at 4° C. The supernatant was saved and centrifuged at 20,000×g for 20 minutes at 4° C. This supernatant was discarded and the cell pellet resuspended in TEE buffer+Complete and homogenized in a glass dounce for 12 strokes. This suspension was centrifuged at 20,000×g for 20 minutes at 4° C. and the supernatant discarded. The pellet was resuspended in assay buffer (50 mM Tris, 100 mM NaCl, 1 mM EDTA) containing one protease inhibitor cocktail tablet per 50 mL, and can be flash frozen as 1 mL aliquots at this point.
Dry compounds were diluted as 10 mM DMSO stocks and tested in a seven-point, three-fold dilution series run in triplicate beginning at 10 μM, final concentration. A 1 mM DMSO intermediate stock was made in a dilution plate and from this the seven dilutions were made to 5× the final concentration in assay buffer containing 0.02% BSA.
The plates were incubated at room temperature for 1 hour. The reaction was stopped using a cell harvester to transfer the reaction mixture onto GF/B UniFilter plates (Perkin Elmer # 6005177), and washed three times with wash buffer (50 mM Tris), filtering between each wash. The filter plates were dried for approximately 20 minutes in an oven at 50° C. Back seals were adhered to the filter plates and 25 uL of Microscint 20 scintillation fluid (Perkin Elmer # 6013621) were added. The filter plates were sealed, shaken for 30 minutes, and counted on a Top Count. Data were analyzed using a four-parameter curve fit with a fixed minimum and maximum experimentally defined as the average positive and negative controls on each plate, and with a hill slope equal to one.
The table below presents the IC50, Ki, and percent inhibition values for compounds tested in either washed human platelets membrane binding assay (assay #1 above) or recombinant cell membrane binding assay (Assay #3, above). Example number refers to the compound prepared as described in the example noted in the section Working Examples, above. The highest concentration of candidate compound tested is listed for each experimental run presented. […]

Sequence of P2Y12 receptor (Q9H244 whole entry): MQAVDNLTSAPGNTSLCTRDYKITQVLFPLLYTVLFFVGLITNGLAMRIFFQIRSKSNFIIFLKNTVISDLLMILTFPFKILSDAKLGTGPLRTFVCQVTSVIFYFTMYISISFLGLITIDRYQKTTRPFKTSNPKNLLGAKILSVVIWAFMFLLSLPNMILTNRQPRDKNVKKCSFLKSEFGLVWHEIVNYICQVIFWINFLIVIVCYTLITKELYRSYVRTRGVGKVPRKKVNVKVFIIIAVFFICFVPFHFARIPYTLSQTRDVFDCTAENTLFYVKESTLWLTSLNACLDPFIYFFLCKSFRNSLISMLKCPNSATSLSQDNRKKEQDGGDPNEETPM

SMILES	IC50	Ki	% Inhibition (10 μM)	inhibition at 10 µM (10 μM) [%]	inhibition at 1 µM (1 μM) [%]	% Inhibition (1 μM) [%]
CCc1cc2c(N3CCN(C(=O)Cc4ccccc4)CC3)nc(SCC(=O)OC)nc2s1 [Example 7, methyl ({6-ethyl-4-[4-(phenylacetyl)piperazin-1-yl]thieno[2,3-d]pyrimidin-2-yl}thio)acetate]	1020 nM and 380 nM and 420 nM and 320 nM	582 nM and 210 nM and 240 nM and 174 nM	89.51% and 95.92% and 94.06%	92.9		
CCc1cc2c(N3CCN(C(=O)Cc4ccccc4)CC3)nc(S(=O)(=O)CC(=O)OC)nc2s1 [Example 8, Methyl ({6-ethyl-4-[4-(phenylacetyl)piperazin-1-yl]thieno[2,3-d]pyrimidin-2-yl}sulfonyl)acetate]	1200 nM	720 nM and 680 nM	81.44%	81.3		
CCc1cc2c(N3CCN(C(=O)Cc4ccccc4)CC3)nc(SCC(=O)Nc3ccc4ccccc4c3)nc2s1 [Example 9, 2-({6-Ethyl-4-[4-(phenylacetyl)piperazin-1-yl]thieno[2,3-d]pyrimidin-2-yl}thio)-N-2-naphthylacetamide]	> 10000 nM and 9300 nM	> 5900 nM and 5400 nM				
C=CCSc1nc(N2CCN(C(=O)Cc3ccccc3)CC2)c2cc(CC)sc2n1 [Example 10, 2-(Allylthio)-6-ethyl-4-[4-(phenylacetyl)piperazin-1-yl]thieno[2,3-d]pyrimidine]	990 nM and 550 nM	570 nM and 330 nM	79.53%	82.3		
CCc1cc2c(N3CCN(C(=O)Cc4ccccc4)CC3)nc(SC(C)C(=O)NCC(=O)O)nc2s1 (stereo not shown) [Example 11, N-[2-({6-Ethyl-4-[4-(phenylacetyl)piperazin-1-yl]thieno[2,3-d]pyrimidin-2-yl}thio)propanoyl]glycine]	330 nM and 230 nM and 270 nM and 328 nM	190 nM and 130 nM and 160 nM and 189 nM	92.50% and 88.81%	90.5	81	
CCc1cc2c(N3CCN(C(=O)Cc4ccccc4)CC3)nc(SCC(O)CO)nc2s1 (stereo not shown) [Example 12, 3-({6-Ethyl-4-[4-(phenylacetyl)piperazin-1-yl]thieno[2,3-d]pyrimidin-2-yl}thio)propane-1,2-diol]	340 nM and 370 nM	200 nM and 210 nM	92.83%	83.4		
CCc1cc2c(N3CCN(C(=O)Cc4ccccc4)CC3)nc(SCC(=O)NC)nc2s1 [Example 13, 2-({6-Ethyl-4-[4-(phenylacetyl)piperazin-1-yl]thieno[2,3-d]pyrimidin-2-yl}thio)-N-methylacetamide]	280 nM and 530 nM	160 nM and 310 nM	88.77%	88.2		
CCc1cc2c(N3CCN(C(=O)Cc4ccccc4)CC3)nc(SC(C)C(C)=O)nc2s1 (stereo not shown) [Example 14, 3-({6-Ethyl-4-[4-(phenylacetyl)piperazin-1-yl]thieno[2,3-d]pyrimidin-2-yl}thio)butan-2-one]	290 nM and 330 nM	160 nM and 200 nM	83.72%	89.9		
CCc1cc2c(N3CCN(C(=O)Cc4ccccc4)CC3)nc(SCCNC(C)=O)nc2s1 [Example 15, N-[2-({6-Ethyl-4-[4-(phenylacetyl)piperazin-1-yl]thieno[2,3-d]pyrimidin-2-yl}thio)ethyl]acetamide]	300 nM	170 nM	92.26%	87		
CCc1cc2c(N3CCN(C(=O)Cc4ccccc4)CC3)nc(SC[C@H](N)C(=O)OC)nc2s1 [Example 16, Methyl S-{6-ethyl-4-[4-(phenylacetyl)piperazin-1-yl]thieno[2,3-d]pyrimidin-2-yl}-L-cysteinate]	270 nM and 360 nM	150 nM and 210 nM	87.82%	88.7		
CCc1cc2c(N3CCN(C(=O)Cc4ccccc4)CC3)nc(SCC(C)O)nc2s1 (stereo not shown) [Example 17, 1-({6-Ethyl-4-[4-(phenylacetyl)piperazin-1-yl]thieno[2,3-d]pyrimidin-2-yl}thio)propan-2-ol]	500 nM and 530 nM	290 nM and 310 nM	87.05%	90.6		
CCc1cc2c(N3CCN(C(=O)c4ccc(-c5ccccc5)cc4)CC3)nc(Cl)nc2s1 [Example 21, 4-[4-(1,1′-Biphenyl-4-ylcarbonyl)piperazin-1-yl]-2-chloro-6-ethylthieno[2,3-d]pyrimidine]	22 nM and 10 nM and 20 nM and 43 nM	12 nM and 10 nM and 25 nM	98.24%	95.8	91.9	95.00
CCc1cc2c(N3CCN(C(=O)c4ccc(-c5ccccc5)cc4)CC3)nc(SCC(=O)OC)nc2s1 [Example 22, Methyl ({4-[4-(1,1′-biphenyl-4-ylcarbonyl)piperazin-1-yl]-6-ethylthieno[2,3-d]pyrimidin-2-yl}thio)acetate]	43 nM and 51 nM	25 nM and 28 nM	90.70%	92.7		
CCc1cc2c(N3CCN(C(=O)Cc4ccccc4)CC3)nc(SCC(=O)Nc3ccccc3)nc2s1 [Example 23, 2-({6-Ethyl-4-[4-(phenylacetyl)piperazin-1-yl]thieno[2,3-d]pyrimidin-2-yl}thio)-N-phenylacetamide]			75.04%	64.6		
CCc1cc2c(N3CCN(C(=O)Cc4ccccc4)CC3)nc(SCC(N)=O)nc2s1 [Example 24, 2-({6-Ethyl-4-[4-(phenylacetyl)piperazin-1-yl]thieno[2,3-d]pyrimidin-2-yl}thio)acetamide]	190 nM and 240 nM	110 nM and 130 nM	92.16%	83.1		
CCc1cc2c(N3CCN(C(=O)Cc4ccccc4)CC3)nc(SC(C)C(=O)O)nc2s1 (stereo not shown) [Example 25, 2-({6-Ethyl-4-[4-(phenylacetyl)piperazin-1-yl]thieno[2,3-d]pyrimidin-2-yl}thio)propanoic acid]	200 nM and 270 nM	110 nM and 150 nM	94.08%	88.6		
CCc1cc2c(N3CCN(C(=O)Cc4ccccc4)CC3)nc(SCCc3ccncc3)nc2s1 [Example 26, 6-Ethyl-4-[4-(phenylacetyl)piperazin-1-yl]-2-[(2-pyridin-4-ylethyl)thio]thieno[2,3-d]pyrimidine]	800 nM	460 nM and 430 nM	88.94%	88.7		
CCc1cc2c(N3CCN(C(=O)c4ccc(-c5ccccc5)cc4)CC3)nc(SCCNC(C)=O)nc2s1 [Example 27, N-[2-({4-[4-(1,1′-Biphenyl-4-ylcarbonyl)piperazin-1-yl]-6-ethylthieno[2,3-d]pyrimidin-2-yl}thio)ethyl]acetamide]	100 nM	58 nM		96.5		
CCc1cc2c(N3CCN(C(=O)c4ccc(-c5ccccc5)cc4)CC3)nc(SCC(O)CO)nc2s1 (stereo not shown) [Example 28, 3-({4-[4-(1,1′-Biphenyl-4-ylcarbonyl)piperazin-1-yl]-6-ethylthieno[2,3-d]pyrimidin-2-yl}thio)propane-1,2-diol]	38 nM	22 nM		94.3		
CCc1cc2c(N3CCN(C(=O)c4ccc(-c5ccccc5)cc4)CC3)nc(SC(C)C(C)=O)nc2s1 (stereo not shown) [Example 29, 3-({4-[4-(1′-Biphenyl-4-ylcarbonyl)piperazin-1-yl]-6-ethylthieno[2,3-d]pyrimidin-2-yl}thio)butan-2-one]	160 nM	91 nM		82.2		
CCc1cc2c(N3CCN(C(=O)c4ccc(-c5ccccc5)cc4)CC3)nc(SCC(N)=O)nc2s1 [Example 31, 2-({4-[4-(1,1′-Biphenyl-4-ylcarbonyl)piperazin-1-yl]-6-ethylthieno[2,3-d]pyrimidin-2-yl}thio)acetamide]	31 nM	18 nM		99.7		
